Test results taken from patent publication US5242938A, “Derivatives of virginiamycin M1” (Merck & Co., Inc., priority 1992, dated 1993).
Values after ≈ are worked out from the molar mass of the structure shown. Where two headings read alike, the source gives them in different places.

What was measured:
[1] = target: T1, CCK-B (guinea pig cortex) (Cavia porcellus, UniProt H0VZC5); assay: [125I]BHCCK-8 radioligand binding, guinea pig cortical preparation; details: read-out: CCK binding inhibition - IC50, [125I]BHCCK
T1 construct: guinea pig cortical preparations; from tissue; host or cells: guinea pig brain cortex membranes
T1 sequence (H0VZC5 1-426): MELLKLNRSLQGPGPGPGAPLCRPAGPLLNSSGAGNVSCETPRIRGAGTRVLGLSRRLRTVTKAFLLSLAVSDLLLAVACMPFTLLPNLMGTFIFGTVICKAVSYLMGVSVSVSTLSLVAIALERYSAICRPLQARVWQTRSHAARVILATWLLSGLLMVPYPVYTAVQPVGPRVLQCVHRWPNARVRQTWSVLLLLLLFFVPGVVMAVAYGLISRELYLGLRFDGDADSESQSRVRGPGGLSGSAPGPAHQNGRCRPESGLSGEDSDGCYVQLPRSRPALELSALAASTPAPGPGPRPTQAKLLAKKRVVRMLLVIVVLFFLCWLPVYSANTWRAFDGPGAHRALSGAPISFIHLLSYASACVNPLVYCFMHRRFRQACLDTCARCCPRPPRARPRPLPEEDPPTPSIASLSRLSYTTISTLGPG
Procedure: (§1) The resulting supernatant was re-spun at 20,000×g for 20 minutes. […] Incubations were for 40 minutes at 4° C. and were terminated by filtration and washing with ice cold 100 mM saline. […] Incubations were for 30 minutes at room temperature and were terminated by filtration over GF/C filters and washing with 100 mM NaCl.

[2] = target: T1, CCK-B (guinea pig cortex); assay: [3H]L-365,260 CCK-B selective antagonist ligand binding, brain membranes; details: for IC50: read-out: CCK binding inhibition - IC50, [3H]L-365,260
Procedure: as §1

CCK-A (rat pancreas) [3] = target: T2, CCK-A (rat pancreas) (Rattus norvegicus, UniProt P30551); assay: [125I]BHCCK-8 radioligand binding, rat pancreatic preparation; details: read-out: CCK binding inhibition - IC50, [125I]BHCCK
T2 construct: from tissue; host or cells: rat pancreas
T2 sequence (P30551 1-444): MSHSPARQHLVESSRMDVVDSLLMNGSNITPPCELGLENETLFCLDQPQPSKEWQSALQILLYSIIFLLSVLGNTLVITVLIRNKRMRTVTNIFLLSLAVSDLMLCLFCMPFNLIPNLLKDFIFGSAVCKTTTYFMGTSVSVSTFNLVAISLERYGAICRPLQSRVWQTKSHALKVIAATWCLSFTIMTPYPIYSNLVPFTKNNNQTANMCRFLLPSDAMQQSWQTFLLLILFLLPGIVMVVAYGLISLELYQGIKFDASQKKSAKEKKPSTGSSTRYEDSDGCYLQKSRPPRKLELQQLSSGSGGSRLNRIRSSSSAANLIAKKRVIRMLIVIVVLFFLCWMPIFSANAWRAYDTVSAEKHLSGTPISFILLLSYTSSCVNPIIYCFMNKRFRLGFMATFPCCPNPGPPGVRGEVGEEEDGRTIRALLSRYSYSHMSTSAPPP
Procedure: as §1

CCK-A (rat pancreas) [4] = target: T2, CCK-A (rat pancreas); assay: [3H]L-364,718 CCK-A selective antagonist ligand binding, pancreas; details: read-out: CCK binding inhibition - IC50, [3H]L-364,718
Procedure: as §1

Bacillus sp. (Mb 633) = assay: Agar diffusion disc assay, Baci 633; assay type: cell-based; details: Bacillus, 18 h
Procedure: (§2) Cultures employed in evaluating antimicrobial activity included plant pathogens, human and animal opportunistic pathogens and selected laboratory strains having specific-antibiotic sensitivities or chromosomal or R-plasmid-mediated resistances. […] The agar diffusion MIC's were determined using the method described by Barry in Anitbiotics in Laboratory Medicine, 2nd Ed., Ed. V. Lorian, pp. 1-63, William & Wilkins, Baltimore, 1986. Each test compound was dissolved in methanol to a concentration of 1 mg/ml. Serial dilutions of these compounds were also made to determine an agar diffusion MIC. 20 μl of each dilution was pipetted on to 6 mm paper discs, air dried and placed onto the surface of an agar plate seeded with the appropriate bacteria (~10^6 cfu). Seeded agar plates were incubated overnight (~18 hours) at 25° C. Zone sizes were measured to the nearest mm. Each compound was tested in triplicate and the results shown represent the mean.

[5] = test system: Staphylococcus aureus (Mb 108, ATCC 6538P); assay: Agar diffusion disc assay, Sta 108; assay type: cell-based; details: Staphylococcus aureus, ATCC6538P, 18 h
Procedure: as §2

[6] = test system: Bacillus subtilis (Mb 964, ATCC 6633); assay: Agar diffusion disc assay, Subt 964; assay type: cell-based; details: Bacillus subtilis, ATCC6633, 18 h, read-out: Inhibition zone diameter, Subt 964
Procedure: as §2

[7] = test system: Micrococcus luteus (Mb 1101, ATCC 9341); assay: Agar diffusion disc assay, Micr 1101; assay type: cell-based
Procedure: as §2

[8] = test system: Staphylococcus aureus (Mb 2983); assay: Agar diffusion disc assay, Sta 2983; assay type: cell-based; details: Staphylococcus aureus, 18 h
Procedure: as §2

[9] = test system: Corynebacterium pseudodiphtheriticum (Mb 261, ATCC 9742); assay: Agar diffusion disc assay, Cory 261; assay type: cell-based; details: Corynebacterium pseudodiphtheriticum, ATCC9742, 18 h
Procedure: as §2

[10] = test system: Streptococcus faecium (Mb 2820); assay: Agar diffusion disc assay, Str 2820; assay type: cell-based; details: Enterococcus faecium, 18 h
Procedure: as §2

[11] = test system: Streptococcus agalactiae (Mb 2875); assay: Agar diffusion disc assay, Str 2875; assay type: cell-based; details: Streptococcus agalactiae, 18 h
Procedure: as §2

[12] = test system: Salmonella gallinarum (Mb 1287); assay: Agar diffusion disc assay, Salm 1287; assay type: cell-based; details: Salmonella enterica, GALLINARUM, 18 h, read-out: Inhibition zone diameter, Salm 1287
Procedure: as §2

[13] = test system: Escherichia coli (Mb 1418); assay: Agar diffusion disc assay, Coli 1418; assay type: cell-based; details: Escherichia coli, 18 h
Procedure: as §2

[14] = test system: Pseudomonas stutzeri (Mb 1231, ATCC 11607); assay: Agar diffusion disc assay, Pseu 1231; assay type: cell-based; details: Stutzerimonas stutzeri, ATCC11607, 18 h
Procedure: as §2

[15] = test system: En terobacter aergenes (Mb 835); assay: Agar diffusion disc assay, Ent 835; assay type: cell-based; details: 18 h, read-out: Inhibition zone diameter, Ent 835
Procedure: as §2

[16] = @ 20 g/disc, read-out: Inhibition zone diameter, Sta 108
[17] = Micrococcus luteus, ATCC9341, 18 h; @ 20 g/disc; read-out: Inhibition zone diameter, Micr 1101
[18] = Micrococcus luteus, ATCC9341, 18 h; read-out: Agar Diffusion MIC versus Micrococcus luteus
[19] = Micrococcus luteus, ATCC9341; 2.50 μg/disc; 25° C., ~18 hours; read-out: Mean of triplicate zone size versus Micrococcus luteus
[20] = Micrococcus luteus, ATCC9341; 5.00 μg/disc; 25° C., ~18 hours; read-out: Mean of triplicate zone size versus Micrococcus luteus
[21] = Micrococcus luteus, ATCC9341; 10.0 μg/disc; 25° C., ~18 hours; read-out: Mean of triplicate zone size versus Micrococcus luteus
[22] = Micrococcus luteus, ATCC9341; 20.0 μg/disc; 25° C., ~18 hours; read-out: Mean of triplicate zone size versus Micrococcus luteus
[23] = @ 20 g/disc, read-out: Inhibition zone diameter, Sta 2983
[24] = @ 20 g/disc, read-out: Inhibition zone diameter, Cory 261
[25] = @ 20 g/disc, read-out: Inhibition zone diameter, Str 2820
[26] = @ 20 g/disc, read-out: Inhibition zone diameter, Str 2875
[27] = @ 20 g/disc, read-out: Inhibition zone diameter, Coli 1418
[28] = @ 20 g/disc, read-out: Inhibition zone diameter, Pseu 1231
[29] = @ 20 g/disc, read-out: Inhibition zone diameter, Baci 633

Structure (SMILES) | IC50 [1] [nM] | A.R. = agonist ratio = IC50([3H]L365,260)/IC50([125I]CCK) [2] | IC50 [2] [nM] | IC50 (CCK-A (rat pancreas) [3]) [nM] | IC50 (CCK-A (rat pancreas) [4]) [nM] | zone of inhibition at 20 µg/disc [5, 16] [mm] | zone of inhibition at 20 µg/disc ([6]; @ 20 g/disc) [mm] | zone of inhibition at 20 µg/disc [7, 17] [mm] | MIC [7, 18] [µM] | zone of inhibition at 2.5 µg/disc [7, 19] [mm] | zone of inhibition at 5 µg/disc [7, 20] [mm] | zone of inhibition at 10 µg/disc [7, 21] [mm] | zone of inhibition at 20 µg/disc [7, 22] [mm] | zone of inhibition at 20 µg/disc [8, 23] [mm] | zone of inhibition at 20 µg/disc [9, 24] [mm] | zone of inhibition at 20 µg/disc [10, 25] [mm] | zone of inhibition at 20 µg/disc [11, 26] [mm] | zone of inhibition at 20 µg/disc ([12]; @ 20 g/disc) [mm] | zone of inhibition at 20 µg/disc [13, 27] [mm] | zone of inhibition at 20 µg/disc [14, 28] [mm] | further results
CCC(=O)O[C@@H]1/C=C(C)/C=C/CNC(=O)/C=C/[C@@H](C)[C@@H](C(C)C)OC(=O)C2=CCCN2C(=O)c2coc(n2)CC(=O)C1 [Example 3] | 600 | 2 | 1000 | > 3000 | > 3000 | 0 | 21 | 0 | 2.51 (≈ 1.46 µg/mL) | 7 | 13 | 17 | 19 | 12 | 0 | 0 | 0 | 0 | 0 | 0 | zone of inhibition at 20 µg/disc (Bacillus sp. (Mb 633); read-out: Inhibition zone diameter, Baci 633, @ 20 g/disc): 11 mm; zone of inhibition at 20 µg/disc ([15]; @ 20 g/disc): 0 mm
CCCCC(=O)O[C@@H]1/C=C(C)/C=C/CNC(=O)/C=C/[C@@H](C)[C@@H](C(C)C)OC(=O)C2=CCCN2C(=O)c2coc(n2)CC(=O)C1 [Example 4] | 500 | 2 | 1200 | > 3000 | > 3000 | 0 | 0 | 25 | 0.54 (≈ 0.329 µg/mL) | 16 | 19 | 21 | 22 | 0 | 0 | 0 | 0 | 0 | 0 | 0 | zone of inhibition at 20 µg/disc (Bacillus sp. (Mb 633); [29]): 0 mm; zone of inhibition at 1.25 µg/disc ([7]; Micrococcus luteus, ATCC9341; 1.25 μg/disc; 25° C., ~18 hours; read-out: Mean of triplicate zone size versus Micrococcus luteus): 12 mm; zone of inhibition at 20 µg/disc ([15]; @ 20 g/disc): 0 mm
CC1=C\[C@@H](OC(=O)Cc2ccccc2)CC(=O)Cc2nc(co2)C(=O)N2CCC=C2C(=O)O[C@H](C(C)C)[C@H](C)/C=C/C(=O)NC\C=C\1 [Example 5] | 600 | ~ 10 | > 3000 | > 3000 | > 3000 |  |  |  |  |  |  |  |  |  |  |  |  |  |  |  | percentage in parentheses beside >3.0, [3H]L-365,260 (inhibition at top concentration, not defined) ([2]; beside IC50 >3.0): 40%; zone of inhibition at 20 µg/disc (Bacillus sp. (Mb 633); [29]): 0 mm; zone of inhibition at 20 µg/disc ([5]; read-out: Inhibition zone diameter, Sta 108, @ 20 g/disc): 0 mm; zone of inhibition at 20 µg/disc [6]: 0 mm; MIC ([7]; Micrococcus luteus, ATCC9341, 18 h, read-out: Agar Diffusion MIC versus Micrococcus luteus): 0.41 µM (≈ 0.264 µg/mL); zone of inhibition at 20 µg/disc ([7]; Micrococcus luteus, ATCC9341, 18 h, read-out: Inhibition zone diameter, Micr 1101, @ 20 g/disc): 12 mm; zone of inhibition at 5 µg/disc ([7]; Micrococcus luteus, ATCC9341, 18 h, read-out: Mean of triplicate zone size versus Micrococcus luteus, 5.00 μg/disc; 25° C., ~18 hours): 10 mm; zone of inhibition at 20 µg/disc ([7]; Micrococcus luteus, ATCC9341, 18 h, read-out: Mean of triplicate zone size versus Micrococcus luteus, 20.0 μg/disc; 25° C., ~18 hours): 13 mm; zone of inhibition at 40 µg/disc ([7]; Micrococcus luteus, ATCC9341, 18 h, read-out: Mean of triplicate zone size versus Micrococcus luteus, 40.0 μg/disc; 25° C., ~18 hours): 14 mm; zone of inhibition at 80 µg/disc ([7]; Micrococcus luteus, ATCC9341, 18 h, read-out: Mean of triplicate zone size versus Micrococcus luteus, 80.0 μg/disc; 25° C., ~18 hours): 14 mm; zone of inhibition at 20 µg/disc ([8]; read-out: Inhibition zone diameter, Sta 2983, @ 20 g/disc): 0 mm; zone of inhibition at 20 µg/disc ([9]; read-out: Inhibition zone diameter, Cory 261, @ 20 g/disc): 0 mm; zone of inhibition at 20 µg/disc ([10]; read-out: Inhibition zone diameter, Str 2820, @ 20 g/disc): 0 mm; zone of inhibition at 20 µg/disc ([11]; read-out: Inhibition zone diameter, Str 2875, @ 20 g/disc): 0 mm; zone of inhibition at 20 µg/disc [12]: 0 mm; zone of inhibition at 20 µg/disc ([13]; read-out: Inhibition zone diameter, Coli 1418, @ 20 g/disc): 0 mm; zone of inhibition at 20 µg/disc ([14]; read-out: Inhibition zone diameter, Pseu 1231, @ 20 g/disc): 0 mm; zone of inhibition at 20 µg/disc [15]: 0 mm
